Test results taken from US20090239884A1, “Methods of Treating Inflammation” (priority 2006, published 2009).

Columns and labels:
[1] = test system: Con A-activated splenocytes on TNF-α activated bEnd.3 endothelial cells; assay: T cell-endothelial cell adhesion assay (Example 13); format: cell-based, mouse
Protocol: Cell treatment. Confluent bEnd.3 monolayers were incubated with 200 ng/ml TNF-α (Peprotech, Rocky Hill, N.J.) at 37° c. for 2 hours. […] Christoff Zitt and Armin Hatzelmann (Altana Pharma, Konstanz, Germany). Con A-activated splenocytes or CD4^+CD25^− T cells activated with plate-bound anti-CD3 mAb were treated with the same reagents for 20, 45, or 90 minutes.
Adhesion assays. Adhesion assays were performed in 24-well plates with a confluent layer of bEnd.3 cells. Splenocytes or CD4^+CD25^− T cells were labeled with 5 μM Calcein AM (Molecular Probes, Eugene, Oreg.) and treated as described above. 7×10^5 pretreated splenocytes or CD4^+CD25^− T cells per well were incubated on bEnd.3 cells in RPMI media. After 30 minutes at 37° C., non-adherent cells were removed by washing with D-PBS. For analysis, 7×10^5 Calcein AM labeled splenocytes or CD4^+CD25^− T cells were used as positive controls. Fluorescence was read in a Victor 3v microplate reader (Perkin Elmer, Waltham, Mass.) with a fluorescein filter set. The percentage of adherent T cells, i.e. labeled cells resistant to detachment, was calculated as total fluorescence of well divided by fluorescence of 7×10^5 Calcein AM labeled cells multiplied by 100.
In FIGS. 20A-20B, splenocytes from C57BL/6 mice were activated with Con A (3 μg/ml) for 48 hours followed by a 45 minute incubation with (A) IBMX (300 μM), piclamilast (Picl, 1 μM) or DP (100 μM), (B) dibutryl cAMP (Db-cAMP, 500 μM) or DP in the presence or absence of adenosine deaminase (AD, 1 U/ml) or vehicle (0.1% DMSO). bEnd.3 endothelial cells were activated for 2 hours with TNF-α (200 ng/ml) and incubated with the same reagents for the final 45 minutes before splenocytes were added to the bEnd.3 cells for the adhesion assay. The data are presented as the mean±SEM percentage of splenocytes which were resistant to detachment. Results are representative of at least three independent experiments run in triplicate (*p<0.05, **p<0.001; one way ANOVA followed by Bonferroni t-test).

bEnd.3 cells = assay: intracellular cAMP ELISA in bEnd.3 cells; format: cell-based, mouse; conditions: DP 100 μM, IBMX 300 μM; for cAMP levels in bEnd.3 cells: 45 minutes
Protocol: Intracellular cAMP ELISAs. Activated bEnd.3 cells were treated as described above for 20, 45, or 90 minutes. cAMP levels were determined with a Correlate cAMP ELISA kit (Assay Designs, Ann Arbor, Mich.) using an ELISA reader (Bio-Rad, Hercules, Calif.) at 405 nm.
In FIG. 23B, IBMX (300 μM), DP (100 μM), or vehicle (0.1% DMSO) were added to the bEnd.3 cells for the final 20, 45, and 90 minutes of TNF-α exposure and the cellular cAMP content analyzed by ELISA. The values are given as the mean±SEM of an experiment run in duplicate with the results representative of 2 independent experiments (*p<0.05, **p<0.001; one way ANOVA followed by Bonferroni t-test for comparisons between vehicle and DP or IBMX and an unpaired t-test for comparisons between DP and IBMX).

[2] = test system: unstimulated mouse splenocytes; assay: transwell chemotaxis assay in response to CXCL12, unstimulated splenocytes; format: cell-based; conditions: Mus musculus, Splenocyte, 4 h; read-out: inhibition of CXCL12-induced migration
Protocol: Isolation of murine splenocytes. Splenocytes were isolated from 6-8 week old C57BL/6 mice obtained from Jackson Laboratories (Bar Harbor, Me.). Spleens were removed and a single-cell suspension prepared using 40 μm cell strainers (Fisher Scientific). Cells were washed with RPMI 1640 medium supplemented with 5% fetal bovine serum, 2 mM L-glutamine, 100 U/ml penicillin and […] (all from GIBCO). Red blood cells were lysed using standard lysis buffer (0.15M NH4Cl, 10mM KHCO3, 0.1 mM EDTA PH 7.4). Cells were then washed and used in chemotaxis assays either as unstimulated cells or after stimulation with Con A ([…]) as indicated.
Preparation of Test Reagents. […] This concentration of DMSO had no effect on migration of splenocytes in the presence or absence of CXCL12. CXCL12 was prepared as a 100 μg/ml stock solution in PBS+0.1% BSA, Con A was prepared as a stock of 2.5 mg/ml in PBS, and dibutyryl cAMP and Rp-cAMPS were prepared as 50 mM stock solutions in water, and these reagents were diluted directly into the chemotaxis assays.
Chemotaxis Assay. Chemotaxis assays were done in 24-well transwell plates with a pore size of 5 μm (Costar, Corning). Splenocytes were placed in medium at a concentration of 3×10^6 cells/ml. Where test agents were used, splenocytes were pretreated with the agent or vehicle for 45 to 60 min, following which 100 μl of the splenocyte suspension was placed into the upper chamber of transwell plates, and the lower chamber was filled with 600 μl of medium. When added to induce migration, CXCL12 (250 ng/ml) was added to the lower chamber only. Other test reagents were added as indicated to both the upper and lower chambers. After 4 hours of incubation at 37° C. in 5% CO2, transwell inserts were gently removed and the number of cells that migrated into the lower chamber were counted by withdrawing 500 μl of lower chamber medium, mixing it with 10 ml of buffer and counting the cells on a Coulter Counter (Beckman Coulter Z series). Where results are expressed as % of CXCL12-stimulated migration, this was calculated as follows: (cells migrated in presence of CXCL12 and test reagent—cells migrated in medium alone)/(cells migrated in presence of CXCL12-cells migrated in medium alone)×100. Experimental points for all chemotaxis assays were performed in triplicate.
Splenocytes isolated from mice were assayed for migration in response to CXCL12 (250 ng/ml), either directly (unstimulated) or following 48 hr of incubation with 3 μg/ml Con A (stimulated), as described in Methods. To test for effects of dibutyryl cAMP, cells were pretreated with dibutyryl cAMP (500 μM) for 45-60 min prior to beginning the chemotaxis assay, and the assays were conducted with dibutyryl cAMP (db-cAMP) present (500 μM) in both the upper and lower chambers of the transwell plates. Data plotted are derived from a single experiment performed in triplicate. *p<0.001; **p<0.02.

For `CC(C)Cn1c(=O)n(C)c(=O)c2[nH]cnc21` [IBMX, 3-isobutyl-1-methylxanthine], the “ability to reduce adhesion of activated T cells to endothelial cells” value ([1]; 45 minute incubation, IBMX 300 μM, piclamilast 1 μM, motapizone 1 μM) was “neither”, the “cAMP levels in bEnd.3 cells” value (bEnd.3 cells) was “significantly increased” and the inhibition at 300 µM [2] was 57%.

With `OCCN(CCO)c1nc(N2CCCCC2)c2nc(N(CCO)CCO)nc(N3CCCCC3)c2n1` [Dipyridamole, 2,2′,2″,2′″-(4,8-di(piperidin-1-yl)pyrimido[5,4-d]pyrimidine-2,6-diyl)bis(azanetriyl)tetraethanol] the “reduction of adhesion of T cells” value ([1]; short term, activated endothelial cells (discussion)) was 65%, the “cAMP levels in bEnd.3 cells” value (bEnd.3 cells) was “significantly increased” and the “increase of cAMP levels in bEnd.3 cells” value (bEnd.3 cells; within 20 minutes) was “over 2 fold”. The inhibition at 100 µM [2] was 55%.
